“Also recorded” adds a separate entry of the source. Read-outs that look alike come from different tables or passages of the source.
Assays:
[1] = design: method as in PMID 33640246; settings: at 8 µM; cited from earlier work
[2] = MTT assay for cell viability, A375; format: cell-based; settings: human, A375 cells, 48 h, mean ± S.E.M.
Procedure: (§1) The cytotoxic activity of all derivatives against the HEK 293 cell line and 10g against A375 (at a density of 5 × 10^3 cells/ml) using 3-(4,5-dimethylthiazol-2-yl)-2,5- diphenyltetrazolium bromide (MTT) assay were performed. Cells were grown at 37 °C in the presence of CO2 5% in DMEM (Gibco BRL, Grand Island, NY, USA), 10% fetal bovine serum (FBS, Gibco BRL), and penicillin/streptomycin (100 IU/mL and 100 µg/mL, respectively). Next cells were seeded in a 96-well plate and incubated at 37 ^∘C with derivatives at different concentrations for 48 h. Following the treatment, cells were incubated with MTT (0.5 mg/ml) at 37 ^∘C for 3 h. The MTT-containing medium was then removed, and 100 μl of DMSO was added to each well, mixed thoroughly with a 10 min shake to dissolve formazan crystals. The absorbance of each well was measured at 540 nm[33].

A375 cells = test: MTT assay for cell viability, A375; format: cell-based; settings: up to 32 μM
Procedure: as §1

[3] = molecular target: T1, Mushroom tyrosinase (EC 1.14.18.1) (Agaricus bisporus, UniProt C7FF04); test: Tyrosinase inhibitory assay (colorimetric, diphenolase activity, L-Dopa); format: biochemical; settings: L-Dopa as substrate; means ± RSD of 3 independent experiments
T1 construct: purchased Sigma Chemical Co
T1 sequence (C7FF04 1-392 limits assumed): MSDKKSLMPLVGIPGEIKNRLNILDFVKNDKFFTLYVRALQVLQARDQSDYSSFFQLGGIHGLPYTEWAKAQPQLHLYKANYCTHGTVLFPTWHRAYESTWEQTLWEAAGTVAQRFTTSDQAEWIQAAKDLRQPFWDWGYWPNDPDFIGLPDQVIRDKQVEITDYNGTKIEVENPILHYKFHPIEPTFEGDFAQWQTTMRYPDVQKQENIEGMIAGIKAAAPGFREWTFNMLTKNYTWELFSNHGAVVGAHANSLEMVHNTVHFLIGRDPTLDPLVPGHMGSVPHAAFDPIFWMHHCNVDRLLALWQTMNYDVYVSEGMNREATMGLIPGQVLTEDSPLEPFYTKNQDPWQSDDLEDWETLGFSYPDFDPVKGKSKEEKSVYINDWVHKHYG
Procedure: Mushroom tyrosinase (EC 1.14.18.1) (Sigma Chemical Co.) was assayed using L-Dopa as the substrate as reported in our previous studies with some modifications[30]–[32]. The enzyme diphenolase activity was monitored spectrophotometrically by observing dopachrome formation at 490 nm. All the test samples were first dissolved in DMSO at 10 mM and diluted to the required concentrations. Initially, in a 96-well microplate, 10 µl of test samples were added to 160 µl of 50 mM phosphate buffer (pH = 6.8) and then 10 µl tyrosinase (500 U mL^−1) was added. After the mixture was pre-incubated at 28 °C for 20 min, 20 µl of L-Dopa solution (7 mM) was added to the mixture. After 10 min incubation absorbance of samples was measured. DMSO without test compounds was used as the control, and kojic acid was used as a positive control. Each assay was conducted as three separate replicates. The inhibitory activity of the tested compounds was expressed as the concentration that inhibited 50% of the enzyme activity (IC50). […]

A375 cell line = test: Melanin content assay; format: cell-based; settings: A375, 48 h, at tested concentrations, kojic acid positive control
Procedure: The assay was performed according to previously reported procedures. In detail, A375 cells were seeded in six-well plates (2.0 × 10^5 cells/well). After 24 h, the medium was replaced by a fresh one and treated with 10g at different concentrations and the plate was incubated for an extra 48 h. After that cells were washed twice with PBS and harvested using […], then dissolved in 300 μl of 1 N NaOH/10% DMSO buffer and boiled for 2 h at 80 °C to solubilize the melanin. The absorbance of the supernatant was measured at 470 nm in a microplate reader. The obtained results were normalized using total protein content. Kojic acid was used as a positive[30],[34].

tyrosinase = test: Fluorescence quenching of tyrosinase (Stern–Volmer); format: binding
Procedure: The fluorescent measurements were carried out in each well of the black 96 well plate by adding various concentrations of inhibitor 10g, (Q = 5, 10, 20, 40, and 100 µM) to a constant concentration of tyrosinase (273 IU/mL). Next, phosphate buffer solution (0.05 M, pH = 6.8) was used to bring the capacity of each well to 200 µL. Before measurements, all solutions were properly mixed and allowed to stand for 20 min at 298 K and 304 K. A fluorescence spectrometer (BioTek’s multi-mode plate reader, USA) was used to measure the fluorescence spectra. The bandwidths of excitation and emission were both set at 5 nm, and fluorescence emission spectra were captured spanning the wavelength range of 310–400 nm at an excitation wavelength of 280 nm.
The linear Stern–Volmer Eq. (1) was used to examine the fluorescence quenching:1 F0/F=1+kqτ0Q=1+kSV[Q] where, F and F0 represent the fluorescence intensity in the presence or absence of inhibitors, respectively. The bimolecular quenching constant is denoted by the symbol kq, whereas the average lifespan of a biomolecule without a quencher is denoted by the symbol τ0, and its value is 10^−8 s. [Q] refers to the inhibitor concentration (µM). KSV which is calculated by kq . τ0. is the fluorescence quenching constant.
In order to calculate the apparent binding constant and binding fraction of fluorophore group of tyrosinase accessible to inhibitor 10g, Stern–Volmer Eq. (1) should be modified to Eq. (2):2 LogF0-F/F=log KA+n LogQ
In this equation, KA indicates either the modified apparent binding constant or the Stern–Volmer quenching constant. n represents the fraction of fluorophore accessible to the quencher. The intercept of the curve that is obtained by plotting log (F0-F/F) versus log [Q] is log KA, and the slope of the curve is n. Therefore, the intercept and slope data may be used to calculate the values of KA and n.

mushroom tyrosinase [4] = test: Enzyme kinetic study (Lineweaver–Burk plot); format: biochemical
Procedure: The Lineweaver–Burk reciprocal plot was provided by plotting 1/V against 1/[S] at variable concentrations of the substrate L-Dopa (0.25, 0.5, 0.75, and 1 mM) The inhibition constant Ki was achieved by the plot of slopes versus the corresponding concentrations of the compound 10g[24].

[5] = MTT assay for cell viability, HEK 293; format: cell-based; settings: human, HEK 293 cells, 48 h, MTT, mean ± S.E.M.
Procedure: as §1

HEK 293 cell line = test: MTT assay for cell viability, HEK 293; format: cell-based; settings: HEK 293, 32 µM, 48 h, MTT; mean ± S.E.M.; 32 µM
Procedure: as §1

mushroom tyrosinase [6] = settings: cited from earlier work
melanoma cells = test system: melanoma cells; design: method as in PMID 28393917; settings: cited from earlier work

For O=c1cc(CSc2nc3ccccc3c(=O)n2Cc2ccccn2)occ1O [C], the melanin content [1] is given as 68.99%.
In the case of NC(=S)N/N=C/c1cc2ccccc2nc1SCC(=O)Nc1ccc(Cl)cc1 [Compound 10g, (E)-2-((3-((2-carbamothioylhydrazono)methyl)quinolin-2-yl)thio)-N-(4-chlorophenyl)acetamide], the viability at 48 h, 16 µM ([2]; A375, 16 µM) is reported as 93.7 ± 2.24%, the viability at 48 h, 32 µM ([2]; A375, 32 µM) is reported as 87.5 ± 1.53% and the viability at 48 h, 64 µM ([2]; A375, 64 µM) is reported as 61.2 ± 3.91%. For the same compound, the “toxicity on A375 cell line” value (A375 cells) was “did not show significant toxicity”, the IC50 [3] was 25.7 µM and the “effect on melanin content” value (A375 cell line) was “reduced the melanin content; also recorded: significant reduction of melanin content”. The melting point was 185 to 191 °C, the “KA (binding constant)” value (tyrosinase; 298 K) was 71150 L/mol and the “Kq (bimolecular quenching constant)” value (tyrosinase; 298 K) was 6.69 × 10^12 L⋅mol^–1⋅s^–1. For the same compound, the “Ksv (Stern–Volmer constant)” value (tyrosinase; 298 K) was 6.69 × 10^4 L.mol^–1, the “n (binding sites)” value (tyrosinase; 298 K) was 0.9288 and the “n (binding sites)” value (tyrosinase; 298 K and 304 K) was roughly 1. For the same compound, the “Kq (bimolecular quenching constant)” value (tyrosinase; 298 K and 304 K, all values) was “higher than 2 × 10^10 L⋅mol^−1⋅s^−1”, the “KA (binding constant)” value (tyrosinase; 304 K) was 52200 L/mol and the “Kq (bimolecular quenching constant)” value (tyrosinase; 304 K) was 5.14 × 10^12 L⋅mol^–1⋅s^–1. For the same compound, the “Ksv (Stern–Volmer constant)” value (tyrosinase; 304 K) was 5.14 × 10^4 L.mol^–1, the “n (binding sites)” value (tyrosinase; 304 K) was 1.0604 and the Km (mushroom tyrosinase [4]; 10g 1 µM) was 800 µM. For the same compound, the “Vmax” value (mushroom tyrosinase [4]; 10g 1 µM) was 80.00 mM/min, the Km (mushroom tyrosinase [4]; 10g 10 µM) was 850 µM and the “Vmax” value (mushroom tyrosinase [4]; 10g 10 µM) was 67.57 mM/min. For the same compound, the Km (mushroom tyrosinase [4]; 10g 20 µM) was 850 µM, the “Vmax” value (mushroom tyrosinase [4]; 10g 20 µM) was 50.25 mM/min and the Km (mushroom tyrosinase [4]; 10g 40 µM) was 950 µM. For the same compound, the “inhibition pattern (type of inhibition)” value (mushroom tyrosinase [4]; Lineweaver–Burk plot, L-Dopa as substrate) was “noncompetitive”, the viability at 48 h, 16 µM ([5]; HEK 293, 16 µM) was 92.7 ± 1.47% and the viability at 48 h, 32 µM ([5]; HEK 293, 32 µM) was greater than 85%. For the same compound, the viability at 48 h, 64 µM ([5]; HEK 293, 64 µM) was 72.5 ± 2.41% and the “Cell viability (%)” value (HEK 293 cell line) was 86.14 ± 2.17%.
For Oc1cnc2c(O)cccc2c1 [Jineol], the IC50 (mushroom tyrosinase [6]; L-Dopa as substrate) is listed as 50.35 ± 0.05 µM, the IC50 (mushroom tyrosinase [6]; L-tyrosine as substrate) is listed as 39.46 ± 0.01 µM and the “effect on melanin content” value (melanoma cells) is listed as “reduced melanin content”.
